Broadly, the inhibition is the change of the read-out against control, counted positive when it falls. Read a low inhibition as a weak effect.

The results in this text go back to patent publication EP1832576A1, “4-Biarylyl-1-phenolyzetidin-2-ones” (Microbia Inc., priority 2003, dated 2005).

The subject of the assay is cholesterol absorption from the intestine. The assay can be described thus: In Vivo Assay of Hypolipidemic Agents using the Rat Cholesterol Absorption Model. The following applies: po, 3H levels in serum three hours after 3H-cholesterol; for inhibition at 10 mg/kg: Table 1, footnote 1, perorally; for inhibition at 1 mg/kg: versus vehicle only control. The arrangement: species or system Female Sprague-Dawley rats. The procedure: In Vivo Assay of Hypolipidemic Agents using the Rat Cholesterol Absorption Model. This model is based on models described by Burnett et al (2002), Bioorg. Med. Chem. Lett. 2002 Feb 11;12(3):315-8 and J. Lipid Res. 1999 Oct;40(10):1747-57. Female Sprague-Dawley rats weighing 150-250g are separated into […] and fasted overnight. The animals (4-6/group) are dosed perorally with 300µL test compounds in olive oil or suitable vehicle. Thirty minutes later, 3-5 microCuries ^3H-cholesterol per rat are delivered perorally in 300 µL olive oil. After three hours, 200 µL serum is collected, vortexed with scintillation fluid, and measured for radioactivity in a scintillation counter. Percent inhibition is defined as 100*(1-Ctest/Cctrl), where Ctest and Cctrl refer to ^3H levels in serum for the test compound and for the vehicle only control, respectively. Percent inhibition values are reported for a fixed dose. The ED50 is the dose at which the half-maximal effect on serum ^3H levels is observed for a given test compound.
Representative compounds of the invention were tested in the Rat Cholesterol Absorption model above.

`COc1ccc(-c2ccc([C@@H]3[C@@H](CC[C@H](O)c4ccc(F)cc4)C(=O)N3c3ccc(F)cc3)cc2)cc1` [Example 5, (3R,4S)-1-(4-fluorophenyl)-3-[(3S)-3-(4-fluorophenyl)-3-hydroxypropyl]-4-(4'-methoxybiphenyl-4-yl)azetidin-2-one]: the inhibition at 10 mg/kg came to 26%. As for `O=C1[C@H](CC[C@H](O)c2ccc(F)cc2)[C@@H](c2ccc(-c3ccc(O)cc3O)cc2)N1c1ccc(F)cc1` [Example 108, (3R,4S)-4-(2',4'-dihydroxybiphenyl-4-yl)-1-(4-fluorophenyl)-3-[(3S)-3-(4-fluorophenyl)-3-hydroxypropyl]azetidin-2-one], at 1 mg/kg the inhibition (Table 1, perorally) was 69%. Under “Table 1, perorally”, `COc1cccc(-c2ccc([C@@H]3[C@@H](CC[C@H](O)c4ccc(F)cc4)C(=O)N3c3ccc(F)cc3)cc2)c1OC` [Example 11, (3R,4S)-4-(2',3'-dimethoxybiphenyl-4-yl)-1-(4-fluorophenyl)-3-[(3S)-3-(4-fluorophenyl)-3-hydroxypropyl]azetidin-2-one] registered an inhibition at 1 mg/kg of 28%. The same measure, in the same setting: then `CN(C)c1cccc(-c2ccc([C@@H]3[C@@H](CC[C@H](O)c4ccc(F)cc4)C(=O)N3c3ccc(F)cc3)cc2)c1` [Example 83, (3R,4S)-4-[3'-(dimethylamino)biphenyl-4-yl]-1-(4-fluorophenyl)-3-[(3 S)-3-(4-fluorophenyl)-3-hydroxypropyl]azetidin-2-one], with 38%. For `N#Cc1cccc(-c2ccc([C@@H]3[C@@H](CC[C@H](O)c4ccc(F)cc4)C(=O)N3c3ccc(F)cc3)cc2)c1` [Example 14, 4'-{(2S,3R)-1-(4-fluorophenyl)-3-[(3S)-3-(4-fluorophenyl)-3-hydroxypropyl]-4-oxoazetidin-2-yl}biphenyl-3-carbonitrile], at 5 mg/kg the inhibition (Table 1, footnote 3, perorally, 5 mg/kg) was 32%. Consider `O=C1[C@H](CC[C@H](O)c2ccc(F)cc2)[C@@H](c2cccc(-c3cccc(O)c3)c2)N1c1ccc(F)cc1` [Example 44, (3R,4S)-1-(4-fluorophenyl)-3-[(3S)-3-(4-fluorophenyl)-3-hydroxypropyl]-4-(3'-hydroxybiphenyl-3-yl)azetidin-2-one], for which testing at 1 mg/kg (Table 2, perorally) gave an inhibition of 24%. `O=Cc1ccc(O)cc1-c1ccc([C@@H]2[C@@H](CC[C@H](O)c3ccc(F)cc3)C(=O)N2c2ccc(F)cc2)cc1` [Example 104, 4'-{(2S,3R)-1-(4-fluorophenyl)-3-[(3S)-3-(4-fluorophenyl)-3-hydroxypropyl]-4-oxoazetidin-2-yl}-5-hydroxybiphenyl-2-carbaldehyde]: at 1 mg/kg the inhibition (Table 1, perorally) was 52%.

Under “Table 1, perorally”, `O=C1[C@H](CC[C@H](O)c2ccc(F)cc2)[C@@H](c2ccc(-c3cccc(S)c3)cc2)N1c1ccc(F)cc1` [Example 119, (3R,4S)-1-(4-fluorophenyl)-3-[(3S)-3-(4-fluorophenyl)-3-hydroxypropyl]-4-(3'-mercaptobiphenyl-4-yl)azetidin-2-one] came in with an inhibition at 1 mg/kg of 56%. Still for that read-out and setting: then `O=C(O)c1cc(-c2ccc([C@@H]3[C@@H](CC[C@H](O)c4ccc(F)cc4)C(=O)N3c3ccc(F)cc3)cc2)ccc1O` [Example 106, 4'-{(2S,3R)-1-(4-fluorophenyl)-3-[(3S)-3-(4-fluorophenyl)-3-hydroxypropyl]-4-oxoazetidin-2-yl}-4-hydroxybiphenyl-3-carboxylic acid], with 66%; and `O=C1[C@H](CC[C@H](O)c2ccc(F)cc2)[C@@H](c2ccc(-c3cccc([C@@H]4O[C@@H](CO)[C@H](O)[C@@H](O)[C@@H]4O)c3)cc2)N1c1ccc(F)cc1` [Example 113, (1S)-1,5-anhydro-1-(4'-{(2S,3R)-1-(4-fluorophenyl)-3-[(3S)-3-(4-fluorophenyl)-3-hydroxypropyl]-4-oxoazetidin-2-yl}biphenyl-3-yl)-L-glucitol], with 67%; and `O=C(O)c1ccc(-c2ccc([C@@H]3[C@@H](CC[C@H](O)c4ccc(F)cc4)C(=O)N3c3ccc(F)cc3)cc2)cc1` [Example 22, 4'-{(2S,3R)-1-(4-fluorophenyl)3-[(3S)-3-(4-fluorophenyl)-3-hydroxypropyl]-4-oxoazetidin-2-yl]biphenyl-4-carboxylic acid], with 52%.

In the case of `O=C1[C@H](CC[C@H](O)c2ccc(F)cc2)[C@@H](c2ccc(-c3ccc4c(c3)OCCO4)cc2)N1c1ccc(F)cc1` [Example 87, (3R,4S)-4-[4-(2,3-dihydro-1,4-benzodioxin-6-yl)phenyl]-1-(4-fluorophenyl)-3-[(3S)-3-(4-fluorophenyl)-3-hydroxypropyl]azetidin-2-one], where the note is “Table 1, perorally”, the inhibition at 1 mg/kg came out at 59%. `O=C1[C@H](CC[C@H](O)c2ccc(F)cc2)[C@@H](c2ccc(-c3cccc([C@@H]4O[C@H](CO)[C@@H](O)[C@H](O)[C@H]4O)c3)cc2)N1c1ccccc1` [Example 64, (1S)-1,5-anhydro-1-(4'-{(2S,3R)-3-[(3S)-3-(4-fluorophenyl)-3-hydroxypropyl]-4-oxo-1-phenylazetidin-2-yl}biphenyl-3-yl)-D-glucitol]: 1 mg/kg produced 67% inhibition (Table 2, perorally). For the setting “Table 1, perorally”, `O=C1[C@H](CC[C@H](O)c2ccc(F)cc2)[C@@H](c2ccc(-c3cc(O)cc(O)c3)cc2)N1c1ccc(F)cc1` [Example 114, (3R,4S)-4-(3',5'-dihydroxybiphenyl-4-yl)-1-(4-fluorophenyl)-3-[(3S)-3-(4-fluorophenyl)-3-hydroxypropyl]azetidin-2-one] yielded an inhibition at 1 mg/kg of 72%. `O=C1[C@H](CC[C@H](O)c2ccc(F)cc2)[C@@H](c2ccc(-c3cccc(OC[C@@H](O)[C@@H](O)[C@H](O)[C@@H](O)CO)c3)cc2)N1c1ccc(F)cc1` [Example 78, 6-O-(4'-{(2S,3R)-1-(4-Fluorophenyl)-3-[(3S)-3-(4-fluorophenyl)-3-hydroxypropyl]-4-oxoazetidin-2-yl}biphenyl-3-yl)-D-glucitol] came in with an inhibition at 1 mg/kg (Table 1, perorally) of 51%. On the same count and under the same terms, then `COc1cc(-c2ccc([C@@H]3[C@@H](CC[C@H](O)c4ccc(F)cc4)C(=O)N3c3ccc(F)cc3)cc2)ccc1O` [Example 102, (3R,4S)-1-(4-fluorophenyl)-3-[(3S)-3-(4-fluorophenyl)-3-hydroxypropyl]-4-(4'-hydroxy-3'-methoxybiphenyl-4-yl)azetidin-2-one], with 56%; and `CCCCOc1cccc(-c2ccc([C@@H]3[C@@H](CC[C@H](O)c4ccc(F)cc4)C(=O)N3c3ccc(F)cc3)cc2)c1` [Example 109, (3R,4S)-4-(3'-butoxybiphenyl-4-yl)-1-(4-fluorophenyl)-3-[(3S)-3-(4-fluorophenyl)-3-hydroxypropyl]azetidin-2-one], with 52%. `O=C1[C@H](CC[C@H](O)c2ccc(F)cc2)[C@@H](c2ccc(-c3cc(O)cc(F)c3)cc2)N1c1ccc(F)cc1` [Example 112, (3R,4S)-4-(3'-fluoro-5'-hydroxybiphenyl-4-yl)-1-(4-fluorophenyl)-3-[(3S)-3-(4-fluorophenyl)-3-hydroxypropyl]azetidin-2-one] returned an inhibition at 1 mg/kg (Table 1, perorally) of 75%. Regarding `CC(=O)Nc1cccc(-c2ccc([C@@H]3[C@@H](CC[C@H](O)c4ccc(F)cc4)C(=O)N3c3ccc(F)cc3)cc2)c1` [Example 26, N-(4'-{(2S,3R)-1-(4-fluorophenyl)-3-[(3S)-3-(4-fluorophenyl)-3-hydroxypropyl]-4-oxoazetidin-2-yl}biphenyl-3-yl)acetamide], the inhibition at 10 mg/kg amounted to 76%. Regarding `O=Cc1cccc(-c2ccc([C@@H]3[C@@H](CC[C@H](O)c4ccc(F)cc4)C(=O)N3c3ccc(F)cc3)cc2)c1` [Example 13, 4'-{(2S,3R)-1-(4-fluorophenyl)-3-[(3S)-3-(4-fluorophenyl)-3-hydroxypropyl]-4-oxoazetidin-2-yl}biphenyl-3-carbaldehyde], the inhibition at 1 mg/kg (Table 1, perorally) was 70%. Still for that read-out and setting: with `C[N+](C)(C)c1cccc(-c2ccc([C@@H]3[C@@H](CC[C@H](O)c4ccc(F)cc4)C(=O)N3c3ccc(F)cc3)cc2)c1` [Example 120, 4'-{(2S,3R)-1-(4-fluorophenyl)-3-[(3S)-3-(4-fluorophenyl)-3-hydroxypropyl]-4-oxoazetidin-2-yl}-N,N,N-trimethylbiphenyl-3-aminium] the figure was 23%.

As for `Cc1cccc(-c2ccc([C@@H]3[C@@H](CC[C@H](O)c4ccc(F)cc4)C(=O)N3c3ccc(F)cc3)cc2)c1` [Example 93, (3R,4S)-1-(4-fluorophenyl)-3-[(3S)-3-(4-fluorophenyl)-3-hydroxypropyl]-4-(3'-methylbiphenyl-4-yl)azetidin-2-one], the inhibition at 1 mg/kg (Table 1, perorally) amounted to 28%. Where the note is “Table 2, perorally”, `O=C1[C@H](CC[C@H](O)c2ccc(F)cc2)[C@@H](c2ccc(-c3cccc([C@@H](O)[C@H]4OC(O)[C@H](O)[C@@H](O)[C@@H]4O)c3)cc2O)N1c1ccccc1` (stereo partly drawn) [Example 74, (6R)-6-C-(4'-{(2S,3R)-3-[(3S)-3-(4-Fluorophenyl)-3-hydroxypropyl]-4-oxo-1-phenylazetidin-2-yl}-3'-hydroxybiphenyl-3-yl)-D-glucopyranose] displayed an inhibition at 1 mg/kg of 67%. On to `CS(=O)(=O)c1cccc(-c2ccc([C@@H]3[C@@H](CC[C@H](O)c4ccc(F)cc4)C(=O)N3c3ccc(F)cc3)cc2)c1` [Example 10, (3R,4S)-1-(4-fluorophenyl)-3-[(3S)-3-(4-fluorophenyl)-3-hydroxypropyl]-4-[3'-(methylsulfonyl)biphenyl-4-yl]azetidin-2-one], for which, where the note is “Table 1, footnote 2, perorally, 3 mg/kg”, the inhibition at 3 mg/kg was determined as 54%.
